Patent US20160376240A1, “6 Phenyl or 6 Pyridin 3 YL Indazole Derivatives and Methods of Use” (ABBVIE INC., priority 2014, published 2016)

Molecular target: T1, TrkA (Homo sapiens, UniProt P04629)
T1 construct: purchased Invitrogen PV3144
Assay: TrkA kinase inhibition, HTRF assay
Assay type: biochemical
Conditions: LCK peptide substrate 125 nM, TrkA 2-10 nM pre-incubated with ATP 200 μM
Procedure: TrkA, TrkB, and TrkC enzymes were obtained from Invitrogen (as catalog numbers PV3144, PV3616, and PV3617, respectively). The ability of a compound to inhibit the enzymatic activity of the TrkA, TrkB, and TrkC enzymes was determined in separate assays. Enzyme activity was measured in an HTRF® (homogeneous time resolved fluorescence) assay, which detects enzymatic phosphorylation of a biotinylated synthetic peptide substrate (an LCK peptide analog, biotin-ahx-GAEEEIYAAFFA, from Genemed Synthesis). Phosphorylation is assessed by HTRF® in the presence of an anti-phosphotyrosine antibody conjugated to Eu^3+ cryptate (Cisbio) as donor fluorophore, and streptavidin conjugated to allophycocyanin (ProZyme) as acceptor fluorophore. The HTRF® signal was detected at two different wavelengths (620 nm and 665 nm) which were used to calculate the fluorescence ratio.
Each enzyme was titrated to a concentration optimized to ensure accurate measurement of the initial reaction rate. To allow the Trk enzymes to undergo activation and auto-phosphorylation, a 20 minute pre-incubation with ATP was carried out (at twice the final targeted enzyme and ATP concentration) prior to addition of test compound and the peptide substrate.
TrkA in vitro assays were performed by pre-incubating TrkA (2-10 nM) with ATP (200 μM) for 20 minutes at ambient temperature in 50 mM HEPES pH 7.4, 10 mM MgCl2, 2 mM MnCl2, 100 μM Na3VO4, 1 mM dithiothreitol, 0.01% BSA (bovine serum albumin). Then, to the activated Trk enzyme mixture was added the test compound in 2% dimethyl sulfoxide. After 10 minutes, the peptide substrate (125 nM) was added. After 1 hour, enzyme reactions were terminated by addition of equal reaction volumes of detection/stop reagent (containing 0.2 μg/mL anti-phosphotyrosine monoclonal antibody labeled with europium from Cisbio (catalog# PT66-K), and 4 μg/mL PhycoLink® Streptavidin-Allophycocyanin conjugate from ProZyme (catalog# PJ25S) in 60 mM EDTA in 40 mM HEPES pH 7.4, 480 mM KF, 0.01% Tween® 20 and 0.1% BSA bovine serum albumin) Reaction plates were stored at 4° C. overnight before reading the fluorescence ratio signal on a PerkinElmer EnVision™ fluorescence detector. Individual reaction wells were stopped at time points to obtain reaction rates. The test inhibitor compounds were assayed in duplicate, at half-log serial dilutions over a range of concentrations (e.g. starting at 50 μM or 5 μM as the high compound concentration). The percent Trk enzyme inhibition was calculated from the initial rates of the inhibited reactions relative to the uninhibited control. IC50 values were calculated by fitting the inhibition percent to the concentration of inhibitor [I] in the assay in equation 1 below, to solve for the IC50.
Inhibition %=100[I]/([I]+[IC50]) equation 1

T1 sequence (P04629 33-796): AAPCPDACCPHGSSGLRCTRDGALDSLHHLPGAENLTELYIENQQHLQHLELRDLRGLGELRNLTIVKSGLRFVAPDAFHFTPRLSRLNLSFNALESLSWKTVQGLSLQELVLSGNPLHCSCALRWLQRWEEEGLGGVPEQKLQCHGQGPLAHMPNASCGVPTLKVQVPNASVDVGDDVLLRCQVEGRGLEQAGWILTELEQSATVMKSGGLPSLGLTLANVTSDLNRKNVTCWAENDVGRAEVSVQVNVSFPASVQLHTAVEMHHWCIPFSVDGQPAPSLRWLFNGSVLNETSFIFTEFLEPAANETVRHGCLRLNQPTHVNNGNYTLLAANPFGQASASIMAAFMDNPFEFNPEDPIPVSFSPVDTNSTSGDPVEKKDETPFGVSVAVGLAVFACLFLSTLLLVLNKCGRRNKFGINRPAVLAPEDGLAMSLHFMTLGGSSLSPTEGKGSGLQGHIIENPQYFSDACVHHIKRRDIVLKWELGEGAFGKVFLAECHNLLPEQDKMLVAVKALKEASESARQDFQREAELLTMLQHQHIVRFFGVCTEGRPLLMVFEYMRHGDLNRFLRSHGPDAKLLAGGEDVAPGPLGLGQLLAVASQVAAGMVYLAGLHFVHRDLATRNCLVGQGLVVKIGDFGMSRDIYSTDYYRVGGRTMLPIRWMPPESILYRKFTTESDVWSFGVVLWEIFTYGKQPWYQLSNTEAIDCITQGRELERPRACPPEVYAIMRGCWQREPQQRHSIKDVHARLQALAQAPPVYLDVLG

SMILES	IC50
CNC(=O)c1ccc(-c2cc(OC3CCOCC3)c3c(N)n[nH]c3c2)cc1N1CCNCC1 [Example 112, 4-[3-amino-4-(tetrahydro-2H-pyran-4-yloxy)-1H-indazol-6-yl]-N-methyl-2-(piperazin-1-yl)benzamide]	0.00711 µM
CC(Oc1cc(-c2ccc(C(N)=O)c(N3CCN(c4ccccn4)CC3)c2)cc2[nH]nc(N)c12)C(F)(F)F (centres unmarked) [Example 94, 4-{3-amino-4-[(1,1,1-trifluoropropan-2-yl)oxy]-1H-indazol-6-yl}-2-[4-(pyridin-2-yl)piperazin-1-yl]benzamide]	0.00241 µM
CCOC(=O)N1CCN(c2cc(-c3cc(OC4CCOCC4)c4c(C)n[nH]c4c3)ccc2C(=O)NC)CC1 [Example 134, ethyl 4-{2-(methylcarbamoyl)-5-[3-methyl-4-(tetrahydro-2H-pyran-4-yloxy)-1H-indazol-6-yl]phenyl}piperazine-1-carboxylate]	0.0127 µM
Cc1n[nH]c2cc(-c3ccc(C(N)=O)c(N4CCN(CC(F)(F)F)CC4)c3)cc(OC3CCOCC3)c12 [Example 157, 4-[3-methyl-4-(tetrahydro-2H-pyran-4-yloxy)-1H-indazol-6-yl]-2-[4-(2,2,2-trifluoroethyl)piperazin-1-yl]benzamide]	0.0227 µM
CNC(=O)c1ccc(-c2cc(OC3CCOCC3)c3c(C)n[nH]c3c2)cc1N1CCN(C(=O)OC)CC1 [Example 153, methyl 4-{2-(methylcarbamoyl)-5-[3-methyl-4-(tetrahydro-2H-pyran-4-yloxy)-1H-indazol-6-yl]phenyl}piperazine-1-carboxylate]	0.00912 µM
CNC(=O)c1ccc(-c2cc(OC3CCOCC3)c3c(N)n[nH]c3c2)cc1N1CCN(C(=O)OC(C)C)CC1 [Example 114, isopropyl 4-{5-[3-amino-4-(tetrahydro-2H-pyran-4-yloxy)-1H-indazol-6-yl]-2-(methylcarbamoyl)phenyl}piperazine-1-carboxylate]	0.0808 µM
CC(Oc1cc(-c2ccc(C(N)=O)c(N3CCN(C(=O)C4CC4)CC3)c2)cc2[nH]nc(N)c12)C(F)(F)F (centres unmarked) [Example 103, 4-{3-amino-4-[(1,1,1-trifluoropropan-2-yl)oxy]-1H-indazol-6-yl}-2-[4-(cyclopropylcarbonyl)piperazin-1-yl]benzamide]	0.0194 µM
CC(C)(C)C(=O)N1CCN(c2cc(-c3cc(OC4CCOCC4)c4c(N)n[nH]c4c3)ccc2C(=O)NC2CC2)CC1 [Example 25, 4-[3-amino-4-(tetrahydro-2H-pyran-4-yloxy)-1H-indazol-6-yl]-N-cyclopropyl-2-[4-(2,2-dimethylpropanoyl)piperazin-1-yl]benzamide]	0.188 µM
NC(=O)c1ccc(-c2ccc3c(N)n[nH]c3c2)cc1N1CCN(C2CC2)CC1 [Example 88, 4-(3-amino-1H-indazol-6-yl)-2-(4-cyclopropylpiperazin-1-yl)benzamide]	8.44 µM
CNC(=O)c1ccc(-c2cc(O[C@H](C)C(F)(F)F)c3c(N)n[nH]c3c2)cc1N1CCN2CCCCC2C1 (stereo partly drawn) [Example 57, 4-(3-amino-4-{[(2R)-1,1,1-trifluoropropan-2-yl]oxy}-1H-indazol-6-yl)-N-methyl-2-(octahydro-2H-pyrido[1,2-a]pyrazin-2-yl)benzamide]	6.32 µM
CC(Oc1cc(-c2ccc(C(N)=O)c(N3CCN(CCC(C)(C)C)CC3)c2)cc2[nH]nc(N)c12)C(F)(F)F (centres unmarked) [Example 100, 4-{3-amino-4-[(1,1,1-trifluoropropan-2-yl)oxy]-1H-indazol-6-yl}-2-[4-(3,3-dimethylbutyl)piperazin-1-yl]benzamide]	0.00498 µM
NC(=O)c1ccc(-c2cc(OC3CCOCC3)c3c(N)n[nH]c3c2)cc1N1CCN(CCN2CCOCC2)CC1 [Example 5, 4-[3-amino-4-(tetrahydro-2H-pyran-4-yloxy)-1H-indazol-6-yl]-2-{4-[2-(morpholin-4-yl)ethyl]piperazin-1-yl}benzamide]	0.037 µM
CC(Oc1cc(-c2ccc(C(=O)NC3CC3)c(N3CCN(c4ccccc4)CC3)c2)cc2[nH]nc(N)c12)C(F)(F)F (centres unmarked) [Example 26, 4-{3-amino-4-[(1,1,1-trifluoropropan-2-yl)oxy]-1H-indazol-6-yl}-N-cyclopropyl-2-(4-phenylpiperazin-1-yl)benzamide]	0.0581 µM
NC(=O)c1ccc(-c2cc(OC3CCCC3)c3c(N)n[nH]c3c2)cc1N1CCN(C(=O)c2ccccc2)CC1 [Example 80, 4-[3-amino-4-(cyclopentyloxy)-1H-indazol-6-yl]-2-(4-benzoylpiperazin-1-yl)benzamide]	0.0175 µM
Cc1n[nH]c2cc(-c3ccc(C(N)=O)cc3)cc(OC3CCOCC3)c12 [Example 132, 4-[3-methyl-4-(tetrahydro-2H-pyran-4-yloxy)-1H-indazol-6-yl]benzamide]	0.0341 µM
Cc1n[nH]c2cc(-c3cncc(N4CCN(c5ccccc5)CC4)c3)cc(OC3CCCC3)c12 [Example 161, 4-(cyclopentyloxy)-3-methyl-6-[5-(4-phenylpiperazin-1-yl)pyridin-3-yl]-1H-indazole]	0.0737 µM
NC(=O)c1ccc(-c2cc(OC3CCCC3)c3c(N)n[nH]c3c2)cc1N1CCC(c2ccccc2)CC1 [Example 76, 4-[3-amino-4-(cyclopentyloxy)-1H-indazol-6-yl]-2-(4-phenylpiperidin-1-yl)benzamide]	0.0245 µM
CNC(=O)c1ccc(-c2cc(O[C@H](C)C(F)(F)F)c3c(N)n[nH]c3c2)cc1N1CCN(c2cccnc2)CC1 [Example 49, 4-(3-amino-4-{[(2R)-1,1,1-trifluoropropan-2-yl]oxy}-1H-indazol-6-yl)-N-methyl-2-[4-(pyridin-3-yl)piperazin-1-yl]benzamide]	0.141 µM
CC(Oc1cc(-c2ccc(C(N)=O)c(N3CCN(CCN4CCOCC4)CC3)c2)cc2[nH]nc(N)c12)C(F)(F)F (centres unmarked) [Example 95, 4-{3-amino-4-[(1,1,1-trifluoropropan-2-yl)oxy]-1H-indazol-6-yl}-2-{4-[2-(morpholin-4-yl)ethyl]piperazin-1-yl}benzamide]	0.0898 µM
CNC(=O)c1ccc(-c2cc(O[C@@H](C)C(F)(F)F)c3c(N)n[nH]c3c2)cc1N1CCN(CCC(C)(C)C)CC1 [Example 40, 4-(3-amino-4-{[(2S)-1,1,1-trifluoropropan-2-yl]oxy}-1H-indazol-6-yl)-2-[4-(3,3-dimethylbutyl)piperazin-1-yl]-N-methylbenzamide]	0.0714 µM
CNC(=O)c1ccc(-c2cc(O[C@H](C)C(F)(F)F)c3c(N)n[nH]c3c2)cc1N1CCN(c2ccccc2)CC1 [Example 48, 4-(3-amino-4-{[(2R)-1,1,1-trifluoropropan-2-yl]oxy}-1H-indazol-6-yl)-N-methyl-2-(4-phenylpiperazin-1-yl)benzamide]	0.0385 µM
CC(=O)Nc1ccc(-c2cc(OC3CCOCC3)c3c(C)n[nH]c3c2)cc1N1CCN(Cc2cccnc2)CC1 [Example 148, N-{4-[3-methyl-4-(tetrahydro-2H-pyran-4-yloxy)-1H-indazol-6-yl]-2-[4-(pyridin-3-ylmethyl)piperazin-1-yl]phenyl}acetamide]	0.0346 µM
CNC(=O)c1ccc(-c2cc(OC3CCOCC3)c3c(C)n[nH]c3c2)cc1N1CCN(C(=O)OC(C)(C)C)CC1 [Example 122, tert-butyl 4-{2-(methylcarbamoyl)-5-[3-methyl-4-(tetrahydro-2H-pyran-4-yloxy)-1H-indazol-6-yl]phenyl}piperazine-1-carboxylate]	0.00814 µM
CNC(=O)c1ccc(-c2cc(OC3CCOCC3)c3c(N)n[nH]c3c2)cc1N1CCN(C(=O)OC(C)(C)C)CC1 [Example 111, tert-butyl 4-{5-[3-amino-4-(tetrahydro-2H-pyran-4-yloxy)-1H-indazol-6-yl]-2-(methylcarbamoyl)phenyl}piperazine-1-carboxylate]	0.0268 µM
NC(=O)c1ccc(-c2ccc3c(N)n[nH]c3c2)cc1N1CCN(c2cccnc2)CC1 [Example 90, 4-(3-amino-1H-indazol-6-yl)-2-[4-(pyridin-3-yl)piperazin-1-yl]benzamide]	0.227 µM
CNC(=O)c1ccc(-c2cc(O[C@H](C)C(F)(F)F)c3c(N)n[nH]c3c2)cc1OCCOC1CCCCC1 [Example 105, 4-(3-amino-4-{[(2R)-1,1,1-trifluoropropan-2-yl]oxy}-1H-indazol-6-yl)-2-[2-(cyclohexyloxy)ethoxy]-N-methylbenzamide]	0.00323 µM
